From article PMC9054546, “Synthesis and molecular modeling studies of cholinesterase inhibitor dispiro[indoline-3,2′-pyrrolidine-3′,3′′-pyrrolidines]” (RSC Advances, 2020)
Several values for one entry are separate records, joined by “and”; a condition that tells them apart may be missing. Identical values can stand only once. Like-named read-outs stand apart in the source and are kept apart here.

How the values were obtained:
[1] = tested on: RPE1 (human immortalized retinal pigment epithelial cell line); assay: Antiproliferative/cytotoxicity MTT assay on normal cell line; assay type: cell-based; conditions: RPE-1, 72 h incubation, tested at 100, 50, 25 and 12.5 μM, read-out: IC50 against RPE1
Text: Antiproliferative properties of the synthesized agents 8a–l were considered against RPE1 (human immortalized retinal pigment epithelial cell line) normal cell line utilizing the standard MTT (tetrazolium salt) technique.[37]
The synthesized agents 8a–l were screened against RPE1 (human immortalized retinal pigment epithelial cell line) normal cell line to investigate their cytotoxicity by the standard mitochondrial dependent reduction of yellow MTT [3-(4,5-dimethylthiazol-2-yl)-2,5-diphenyl-tetrazolium bromide] to purple formazan technique.[37] Cells were suspended in DMEM in addition to 1% antibiotic–antimycotic mixture (10 000 μg mL^−1 potassium penicillin, 10 000 μg mL^−1 streptomycin sulfate and 25 μg mL^−1 amphotericin B), 10% fetal bovine serum and 1% L-glutamine at 37 °C, under 5% CO2 and 95% humidity. Cells were seeded at concentration of 30 000 cells per well in fresh complete growth medium in 96-well tissue culture microtiter plates for 24 h. […] 0.5% DMSO was used as negative control. Triplicate wells were prepared for each individual dose. After 72 h of incubation, medium was aspirated, 40 μl MTT salt (2.5 mg mL^−1) were added to each well and incubated for further 4 h at 37 °C. To stop the reaction and dissolve the formed crystals, 150 μL of 10% sodium dodecyl sulfate (SDS) in deionized water were added to each well and incubated overnight at 37 °C.
Data were collected as mean values for experiments performed in triplicates for each individual dose which had been measured by MTT assay. […] The percentage of cell survival was calculated according to the following equation. [drawing 1]
Statistical calculations for determination of the mean and standard error values were determined by SPSS 16 software.

AChE [2] = biological target: T1, AChE (Homo sapiens, UniProt P22303); assay: 2D-QSAR (BMLR, CODESSA-Pro) model, AChE inhibitors; conditions: observed minus estimated IC50
T1 sequence (P22303 32-614): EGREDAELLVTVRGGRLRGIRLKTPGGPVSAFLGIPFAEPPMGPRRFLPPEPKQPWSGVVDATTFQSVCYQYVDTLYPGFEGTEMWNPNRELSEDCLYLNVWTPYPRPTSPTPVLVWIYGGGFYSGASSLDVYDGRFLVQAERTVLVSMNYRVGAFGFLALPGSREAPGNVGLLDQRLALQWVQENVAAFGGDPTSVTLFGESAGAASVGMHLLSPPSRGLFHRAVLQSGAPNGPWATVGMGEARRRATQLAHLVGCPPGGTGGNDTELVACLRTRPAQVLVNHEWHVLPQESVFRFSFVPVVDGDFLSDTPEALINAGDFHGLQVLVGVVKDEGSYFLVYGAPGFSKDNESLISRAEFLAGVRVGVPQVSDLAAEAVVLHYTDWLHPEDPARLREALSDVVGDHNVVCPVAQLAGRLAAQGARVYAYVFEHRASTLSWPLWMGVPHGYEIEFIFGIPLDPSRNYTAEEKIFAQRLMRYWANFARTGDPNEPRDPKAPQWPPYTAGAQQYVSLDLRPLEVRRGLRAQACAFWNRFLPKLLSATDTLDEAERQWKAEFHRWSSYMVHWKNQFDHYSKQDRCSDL
Text: (§1) The cholinesterase properties observed were undertaken by CODESSA-Pro software accessible for optimizing 2D-QSAR models.[39–41] This is useful for well understanding the bio-observations and identifying the parameters necessary for bio-potency. Three descriptor QSAR models were developed due to the AChE and BChE inhibitory properties of the synthesized dispiro-compounds 8a–l (ESI Tables S4–S9, Fig. S40 and S41, details of the QSAR descriptors are also mentioned in the ESI). ^† […]
(§2) Goodness of the QSAR models was supported by the comparative values of the correlation coefficient (R^2) with their cross validation of leave one-out (R^2cvOO) and leave many-out (R^2cvMO) [R^2 = 0.923, 0.979; R^2cvOO = 0.882, 0.936; R^2cvMO = 0.904, 0.956, for AChE and BChE models, respectively]. Standard deviation (s^2) and Fisher criteria (F) values of the models also support their goodness (s^2 = 0.026, 0.005; […]. Additionally, the correlations of the observed and predicted values “specially the high potent synthesized compounds” add good support for the attained models. […]
(§3) Molecular modeling studies
(§4) The synthesized dispiro[indoline-3,2'-pyrrolidine-3',3''-pyrrolidines] 8a‒l […]
(§5) 2D-QSAR modeling by CODESSA-Pro (comprehensive descriptors for structural and statistical analysis) software. Geometry of the compounds was initially optimized by AM1 technique using hyperChem 8.0 then, uploaded to CODESSA-Pro for final geometrical structure optimization by MOPAC.10‒12 CODESSA-Pro calculated 656 molecular descriptors (constitutional, topological, geometrical, charge-related, semi-empirical, thermodynamical, molecular-type, atomic-type and bond-type descriptors) for […]
(§6) the exported bio-active agents. Mathematical transformation of the experimental values […]
(§7) QSAR model. The best multi-linear regression (BMLR) technique was utilized which is a stepwise search for the best n-parameter regression equations (where n stands for the number of descriptors used), based on the highest R2 (squared correlation coefficient), R2cvOO (squared cross-validation “leave one-out, LOO” coefficient), R2cvMO (squared cross-validation “leave many-out up to 20% of the training set, LMO” coefficient), F (Fisher statistical significance criteria) values, and s2 (standard deviation). The QSAR up to 3-descriptor model describing the biological activity of the bio-active agents were generated (obeying the thumb rule of 4:1 which is the ratio between the data points and the number of QSAR descriptor).
(§8) Minimum (>0.1) bond order for atom C is an atomic type descriptor with the […]
(§9) why the higher descriptor value, the lower AChE inhibitory efficacy of the tested agent as […]
(§10) 2/SQRT(TMSA) (MOPAC PC) is a charge related descriptor with relatively high […]
(§11) . Compounds with high descriptor value predicted low AChE
(§12) 0.11715). HDCA2 (area weighed surface charge of hydrogen bonding donor atoms) can be calculated by equ. (1). 13
(§13) HDCA2 = D … .DtotH‒donor (1)
(§14) Where, standsSD for the solvent accessible surface area of H-bonding donor H atoms (selected by threshold charge), is the partialqD charge on H-bonding donor H atoms (selected by threshold charge) and is the totalStot solvent accessible molecular surface […]
(§15) Square root of surface area for atom C is also a charge related descriptor with […]
(§16) . For this reason, the higher descriptor value of […]

BChE [3] = biological target: T2, BChE (Homo sapiens, UniProt P06276); assay: biochemical; conditions: for SI(BChE/AChE): selectivity index BChE/AChE
T2 sequence (P06276 29-602): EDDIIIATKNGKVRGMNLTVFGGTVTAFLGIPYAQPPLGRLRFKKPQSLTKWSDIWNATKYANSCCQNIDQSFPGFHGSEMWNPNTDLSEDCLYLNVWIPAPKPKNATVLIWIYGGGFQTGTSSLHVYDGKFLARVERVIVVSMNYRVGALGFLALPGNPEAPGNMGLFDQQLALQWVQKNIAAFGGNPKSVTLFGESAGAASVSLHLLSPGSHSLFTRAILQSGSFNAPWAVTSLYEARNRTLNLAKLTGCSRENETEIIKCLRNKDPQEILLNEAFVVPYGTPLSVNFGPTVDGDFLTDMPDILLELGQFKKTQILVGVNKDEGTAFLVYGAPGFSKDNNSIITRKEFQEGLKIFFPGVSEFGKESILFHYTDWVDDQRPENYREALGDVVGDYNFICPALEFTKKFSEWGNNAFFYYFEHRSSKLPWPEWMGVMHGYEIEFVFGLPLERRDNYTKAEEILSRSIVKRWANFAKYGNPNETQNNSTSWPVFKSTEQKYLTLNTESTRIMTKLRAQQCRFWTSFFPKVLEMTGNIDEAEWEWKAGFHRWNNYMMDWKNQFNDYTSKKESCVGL
Description: Butyrylthiocholine iodide and acetylthiocholine were utilized as substrates in BChE and AChE assays, respectively, where DTNB was served as indicator. All compounds were dissolved in MeOH. […] Blank assays were performed by replacing the enzyme (20 μL) with buffer and their absorbances were recorded for correction of the spontaneous lysis of the indicator or inherent color of the inhibitor. […]

mice = assay: Acute toxicological bio-assay in mice; assay type: in vivo; conditions: intraperitoneal, 50, 100 and 250 mg kg−1, recorded 24 h post-administration
Description: Albino mice weighing 20–25 g were divided into 4 groups of 6 mice each. Administrations of the tested compounds dissolved in saline solution (0.9%) by the aid of few drops of Tween 80 were given intraperitoneally in 50, 100 and 250 mg kg^−1 (mice body weight). The control group was given a saline solution only with few drops of Tween 80. The toxic symptoms and mortality rates were recorded 24 h post-administration in each group.

AChE [4] = biological target: T1, AChE; assay: biochemical; conditions: for SI(AChE/BChE): selectivity index = IC50 (AChE)/IC50 (BChE)
Description: Butyrylthiocholine iodide and acetylthiocholine were utilized as substrates in BChE and AChE assays, respectively, where DTNB was served as indicator. All compounds were dissolved in MeOH. […] Blank assays were performed by replacing the enzyme (20 μL) with buffer and their absorbances were recorded for correction of the spontaneous lysis of the indicator or inherent color of the inhibitor.
Selectivity index (SI) for acetyl and butyryl cholinesterases was calculated as follow:SI(AChE/BChE) = IC50 (AChE)/IC50 (BChE)SI(BChE/AChE) = […]

BChE [5] = biological target: T2, BChE; assay: 2D-QSAR (BMLR, CODESSA-Pro) model, BChE inhibitors; conditions: observed minus estimated IC50
Text: as §1, §2, §3, §4, §5, §6, §7, §8, §9, §10, §11, §12, §13, §14, §15, §16
partial positively and negatively charged surface area can be calculated by equs. (2) and […]
PPSA3 = A … .. (2)A∈{δA>0}
PNSA3 = A … ..A∈{δA>0} (3)
Where, is the positively/negativelySA charged solvent accessible atomic surface area and qA is the atomic partial charge.
ZX Shadow/ZX rectangle is a geometrical descriptor with the highest coefficient […]
. The higher descriptor value of […]
compounds 8c and 8e, respectively). Relative shadow areas of a molecule can be determined by equ. (4). 13
Where, C is contour of the projection of the molecule on the plane defined by two principal axes of the molecule (k = XY, XZ or YZ plane), , , = X • ν –x or yρ –y or zS(k) […]
Maximum atomic state energy for atom O is an atomic type descriptor. […]

[6] = 10 min incubation at 25 °C, read at 405 nm, read-out: IC50 of BChE (μM) ± SD
[7] = log transformation of the observed IC50, read-out: Observed log(IC50, μM), BChE (converted)
[8] = 10 min incubation at 25 °C, read at 405 nm, read-out: IC50 of AChE (μM) ± SD
[9] = log transformation of the observed IC50, read-out: Observed log(IC50, μM), AChE (converted)

SMILES | IC50 [1] [µM] | Error (difference between observed and estimated property values), AChE BMLR-QSAR model (AChE [2]) [µM] | IC50 (BChE [3]; [6]) | IC50 (BChE [3]; [7]) [µM] | SI(BChE/AChE) (BChE [3]) | Mortality rates or toxicological symptoms (mice) | IC50 (AChE [4]; [8]) | IC50 (AChE [4]; [9]) [µM] | SI(AChE/BChE) (AChE [4]) | Error (difference between observed and estimated property values), BChE BMLR-QSAR model (BChE [5]) [µM]
COc1ccc2c(c1)C1(C(=O)N2)N(C)CC(c2ccc(Cl)cc2)C12CC(=O)N(c1ccccc1)C2=O (stereo not drawn) [Compound 8e, 4′-(4-Chlorophenyl)-5-methoxy-1′-methyl-1′′-phenyldispiro[indoline-3,2′-pyrrolidine-3′,3′′-pyrrolidine]-2,2′′,5′′-trione] | > 100 | 0.10 | 5.6 µM and 5.63 µM | 5.63 | 1.68 | None of the tested agents reveal any mortality rates or toxicological symptoms | 3.4 µM and 3.35 µM | 3.35 | 0.60 | 0.86
COc1ccc(C2CN(C)C3(C(=O)Nc4ccc(OC)cc43)C23CC(=O)N(c2ccccc2)C3=O)cc1 (stereo not drawn) [Compound 8g, 5-Methoxy-4′-(4-methoxyphenyl)-1′-methyl-1′′-phenyldispiro[indoline-3,2′-pyrrolidine-3′,3′′-pyrrolidine]-2,2′′,5′′-trione] | > 100 | -1.78 | 4.7 µM and 4.74 µM | 4.74 | 1.50 | None of the tested agents reveal any mortality rates or toxicological symptoms | 3.2 µM and 3.15 µM | 3.15 | 0.66 | -0.65
CN1CC(c2ccccc2)C2(CC(=O)N(c3ccc(Cl)cc3)C2=O)C12C(=O)Nc1ccccc12 (stereo not drawn) [Compound 8h, 1′′-(4-Chlorophenyl)-1′-methyl-4′-phenyldispiro[indoline-3,2′-pyrrolidine-3′,3′′-pyrrolidine]-2,2′′,5′′-trione] | > 100 | -1.03 | 5.3 µM and 5.34 µM | 5.34 | 0.85 | None of the tested agents reveal any mortality rates or toxicological symptoms | 6.3 µM and 6.27 µM | 6.27 | 1.17 | -0.81
COc1ccc2c(c1)C1(C(=O)N2)N(C)CC(c2ccc(Cl)cc2)C12CC(=O)N(c1ccc(Cl)cc1)C2=O (stereo not drawn) [Compound 8l, 1′′,4′-Bis(4-chlorophenyl)-5-methoxy-1′-methyldispiro[indoline-3,2′-pyrrolidine-3′,3′′-pyrrolidine]-2,2′′,5′′-trione] | > 100 | -7.93 | 35.54 ± 0.33 µM | 35.5 | 1.62 | – | 22 µM | 22 | 0.62 | -0.71
